Measured values taken from patent US8604217B2, “Compound, a process for its preparation, a pharmaceutical composition, use of a compound, a method for modulating or regulating serine/threonine kinases and a serine/threonine kinases modulating agent” (Selvita S.A., priority 2009, dated 2013).

Experiments:
Experiment in all cases: KinaseProfiler kinase panel
eEF-2K(h) = eEF-2K(h) (Homo sapiens (Human), UniProt O00418); assay type: biochemical
ALK(h) = ALK(h) (Homo sapiens (Human), UniProt Q9UM73); assay type: biochemical
Flt3(D835Y)(h) = Flt3(D835Y)(h) (Homo sapiens (Human), UniProt P36888, D835Y); assay type: biochemical
cKit(h) = cKit(h) (Homo sapiens (Human), UniProt P10721); assay type: biochemical
PIM-2(h) = PIM-2(h) (Homo sapiens (Human), UniProt Q9P1W9); assay type: biochemical
MST2(h) = MST2(h) (Homo sapiens (Human), UniProt Q13188); assay type: biochemical
Lyn(h) = Lyn(h) (Homo sapiens (Human), UniProt P07948); assay type: biochemical
PAK3(h) = PAK3(h) (Homo sapiens (Human), UniProt O75914); assay type: biochemical
WNK2(h) = WNK2(h) (Homo sapiens (Human), UniProt Q9Y3S1); assay type: biochemical
PrKX(h) = PrKX(h) (Homo sapiens (Human), UniProt P51817); assay type: biochemical
ALK4(h) = ALK4(h) (Homo sapiens (Human), UniProt P36896); assay type: biochemical
MLCK(h) = assay type: biochemical, human; conditions: 1 μM
MRCKβ(h) = MRCKβ(h) (Homo sapiens (Human), UniProt Q9Y5S2); assay type: biochemical
PKCδ(h) = PKCδ(h) (Homo sapiens (Human), UniProt Q05655); assay type: biochemical
MKK7β(h) = MKK7β(h) (Homo sapiens (Human), UniProt O14733); assay type: biochemical
PIM-1(h) = PIM-1(h) (Homo sapiens (Human), UniProt P11309); assay type: biochemical
DAPK1(h) = DAPK1(h) (Homo sapiens (Human), UniProt P53355); assay type: biochemical
HIPK1(h) = HIPK1(h) (Homo sapiens (Human), UniProt Q86Z02); assay type: biochemical
Flt4(h) = Flt4(h) (Homo sapiens (Human), UniProt P35916); assay type: biochemical
mTOR/FKBP12(h) = mTOR/FKBP12(h) (Homo sapiens (Human), UniProt P42345); assay type: biochemical
MINK(h) = MINK(h) (Homo sapiens (Human), UniProt Q8N4C8); assay type: biochemical
cKit(V654A)(h) = cKit(V654A)(h) (Homo sapiens (Human), UniProt P10721, V654A); assay type: biochemical
Ret(V804M)(h) = Ret(V804M)(h) (Homo sapiens (Human), UniProt P07949, V804M); assay type: biochemical
MAPK2(h) = MAPK2(h) (Homo sapiens (Human), UniProt P28482); assay type: biochemical
IKKβ(h) = IKKβ(h) (Homo sapiens (Human), UniProt O14920); assay type: biochemical
Src(1-530)(h) = Src(1-530)(h) (Homo sapiens (Human), UniProt P12931); assay type: biochemical
PAR-1Bα(h) = PAR-1Bα(h) (Homo sapiens (Human), UniProt Q7KZI7); assay type: biochemical
Tec(h) activated = Tec(h) activated (Homo sapiens (Human), UniProt P42680); assay type: biochemical
Axl(h) = Axl(h) (Homo sapiens (Human), UniProt P30530); assay type: biochemical
MAPKAP-K2(h) = MAPKAP-K2(h) (Homo sapiens (Human), UniProt P49137); assay type: biochemical
CDK3/cyclinE(h) = CDK3/cyclinE(h) (Homo sapiens (Human), UniProt Q00526); assay type: biochemical
Bmx(h) = Bmx(h) (Homo sapiens (Human), UniProt P51813); assay type: biochemical
Tie2 (h) = Tie2 (h) (Homo sapiens (Human), UniProt Q02763); assay type: biochemical
PAK5(h) = PAK5(h) (Homo sapiens (Human), UniProt Q9P286); assay type: biochemical
EGFR(T790M, L858R)(h) = EGFR(T790M, L858R)(h) (Homo sapiens (Human), UniProt P00533, L858R/T790M); assay type: biochemical
DAPK2(h) = DAPK2(h) (Homo sapiens (Human), UniProt Q9UIK4); assay type: biochemical
EphA8(h) = EphA8(h) (Homo sapiens (Human), UniProt P29322); assay type: biochemical
SGK2(h) = SGK2(h) (Homo sapiens (Human), UniProt Q9HBY8); assay type: biochemical
PhKγ2(h) = PhKγ2(h) (Homo sapiens (Human), UniProt P15735); assay type: biochemical
MAPKAP-K3(h) = MAPKAP-K3(h) (Homo sapiens (Human), UniProt Q16644); assay type: biochemical

Sequence of PAR-1Bα(h) (Q7KZI7 other isoform, or with tags, fused parts or gaps isoform Q7KZI7-4): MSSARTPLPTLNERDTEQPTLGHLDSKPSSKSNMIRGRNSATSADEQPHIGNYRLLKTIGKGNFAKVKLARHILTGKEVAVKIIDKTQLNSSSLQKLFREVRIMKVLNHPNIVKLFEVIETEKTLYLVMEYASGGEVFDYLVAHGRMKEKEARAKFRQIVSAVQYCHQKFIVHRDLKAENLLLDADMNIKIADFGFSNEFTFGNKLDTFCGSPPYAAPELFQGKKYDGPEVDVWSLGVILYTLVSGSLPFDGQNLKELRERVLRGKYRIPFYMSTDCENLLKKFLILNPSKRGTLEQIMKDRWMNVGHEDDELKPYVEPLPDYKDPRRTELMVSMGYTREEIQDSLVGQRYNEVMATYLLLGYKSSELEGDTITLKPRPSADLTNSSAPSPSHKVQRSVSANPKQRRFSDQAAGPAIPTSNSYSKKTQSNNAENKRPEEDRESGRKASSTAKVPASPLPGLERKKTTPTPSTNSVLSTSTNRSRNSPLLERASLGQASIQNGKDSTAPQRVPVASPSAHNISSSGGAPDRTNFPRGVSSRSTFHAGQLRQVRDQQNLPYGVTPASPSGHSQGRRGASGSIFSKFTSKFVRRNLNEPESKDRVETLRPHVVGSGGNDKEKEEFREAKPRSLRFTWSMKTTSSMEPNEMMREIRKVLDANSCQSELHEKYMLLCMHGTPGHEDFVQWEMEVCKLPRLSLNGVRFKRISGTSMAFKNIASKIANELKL
Sequence of DAPK1(h) (P53355 whole entry): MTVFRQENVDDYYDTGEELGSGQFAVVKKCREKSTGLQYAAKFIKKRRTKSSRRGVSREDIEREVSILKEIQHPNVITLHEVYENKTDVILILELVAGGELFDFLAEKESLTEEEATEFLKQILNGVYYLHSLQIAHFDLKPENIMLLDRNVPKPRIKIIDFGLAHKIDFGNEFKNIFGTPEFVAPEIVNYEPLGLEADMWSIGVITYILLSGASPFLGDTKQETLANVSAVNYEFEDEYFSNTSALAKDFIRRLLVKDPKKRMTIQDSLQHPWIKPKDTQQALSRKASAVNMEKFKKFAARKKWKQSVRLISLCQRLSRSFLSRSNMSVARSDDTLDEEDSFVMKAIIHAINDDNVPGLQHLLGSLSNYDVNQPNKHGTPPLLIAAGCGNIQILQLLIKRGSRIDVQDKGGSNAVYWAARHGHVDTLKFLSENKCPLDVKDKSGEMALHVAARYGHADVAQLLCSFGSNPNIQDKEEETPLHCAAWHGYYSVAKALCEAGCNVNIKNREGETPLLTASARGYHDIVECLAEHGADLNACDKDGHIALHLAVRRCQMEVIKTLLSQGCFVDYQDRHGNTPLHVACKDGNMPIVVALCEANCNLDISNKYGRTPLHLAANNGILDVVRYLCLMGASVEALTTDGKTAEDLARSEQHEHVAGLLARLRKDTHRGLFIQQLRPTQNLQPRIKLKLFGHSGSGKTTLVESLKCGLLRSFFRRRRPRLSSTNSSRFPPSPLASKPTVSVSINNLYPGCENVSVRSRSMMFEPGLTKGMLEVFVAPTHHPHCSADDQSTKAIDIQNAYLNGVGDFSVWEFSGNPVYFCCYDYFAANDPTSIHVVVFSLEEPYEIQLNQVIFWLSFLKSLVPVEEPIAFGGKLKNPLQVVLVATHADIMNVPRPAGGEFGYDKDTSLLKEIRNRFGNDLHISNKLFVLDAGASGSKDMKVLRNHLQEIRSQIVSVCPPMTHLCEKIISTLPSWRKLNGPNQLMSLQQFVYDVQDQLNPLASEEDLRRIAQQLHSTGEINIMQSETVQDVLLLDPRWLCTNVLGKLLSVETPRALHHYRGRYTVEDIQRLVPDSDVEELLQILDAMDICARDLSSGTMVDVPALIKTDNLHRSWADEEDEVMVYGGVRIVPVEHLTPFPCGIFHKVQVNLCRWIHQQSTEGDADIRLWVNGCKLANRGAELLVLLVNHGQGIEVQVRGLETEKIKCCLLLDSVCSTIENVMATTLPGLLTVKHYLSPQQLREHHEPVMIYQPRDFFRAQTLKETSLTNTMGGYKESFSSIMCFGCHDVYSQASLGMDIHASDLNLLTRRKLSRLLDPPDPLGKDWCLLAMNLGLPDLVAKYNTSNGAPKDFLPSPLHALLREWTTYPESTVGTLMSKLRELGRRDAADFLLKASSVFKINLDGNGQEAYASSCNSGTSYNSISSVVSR
Sequence of Src(1-530)(h) (P12931 whole entry, looked up): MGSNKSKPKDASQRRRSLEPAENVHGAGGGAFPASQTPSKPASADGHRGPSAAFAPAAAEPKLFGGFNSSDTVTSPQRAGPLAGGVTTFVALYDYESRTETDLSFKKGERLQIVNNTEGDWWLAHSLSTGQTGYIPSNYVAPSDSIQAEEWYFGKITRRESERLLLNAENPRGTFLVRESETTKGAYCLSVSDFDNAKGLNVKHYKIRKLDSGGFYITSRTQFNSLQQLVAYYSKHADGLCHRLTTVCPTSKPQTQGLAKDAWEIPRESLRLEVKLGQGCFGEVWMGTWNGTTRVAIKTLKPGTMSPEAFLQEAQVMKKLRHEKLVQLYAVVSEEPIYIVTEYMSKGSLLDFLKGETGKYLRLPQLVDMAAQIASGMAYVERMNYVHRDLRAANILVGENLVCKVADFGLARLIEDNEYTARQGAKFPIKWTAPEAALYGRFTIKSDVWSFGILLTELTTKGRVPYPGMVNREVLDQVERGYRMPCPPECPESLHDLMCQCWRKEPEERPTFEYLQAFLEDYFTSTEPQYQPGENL
Sequence of PAK5(h) (Q9P286 whole entry): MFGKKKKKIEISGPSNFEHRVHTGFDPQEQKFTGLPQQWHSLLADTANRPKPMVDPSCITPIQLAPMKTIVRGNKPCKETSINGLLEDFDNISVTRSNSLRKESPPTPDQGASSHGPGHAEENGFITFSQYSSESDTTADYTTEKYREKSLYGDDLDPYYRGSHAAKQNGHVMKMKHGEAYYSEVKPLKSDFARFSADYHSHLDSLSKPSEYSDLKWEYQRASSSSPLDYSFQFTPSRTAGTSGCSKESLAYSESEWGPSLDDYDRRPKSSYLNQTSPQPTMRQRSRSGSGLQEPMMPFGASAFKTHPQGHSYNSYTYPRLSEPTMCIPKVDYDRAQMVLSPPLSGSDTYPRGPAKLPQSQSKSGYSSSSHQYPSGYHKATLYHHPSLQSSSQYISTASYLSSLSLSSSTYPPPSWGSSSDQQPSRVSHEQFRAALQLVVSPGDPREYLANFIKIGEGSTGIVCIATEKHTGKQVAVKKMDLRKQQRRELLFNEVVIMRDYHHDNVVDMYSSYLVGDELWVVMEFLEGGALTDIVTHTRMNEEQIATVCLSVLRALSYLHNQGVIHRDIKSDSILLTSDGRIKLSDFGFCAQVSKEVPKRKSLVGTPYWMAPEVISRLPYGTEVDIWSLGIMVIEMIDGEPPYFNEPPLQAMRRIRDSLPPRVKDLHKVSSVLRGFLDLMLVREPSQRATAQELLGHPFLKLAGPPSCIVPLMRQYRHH
Sequence of CDK3/cyclinE(h) (Q00526 whole entry): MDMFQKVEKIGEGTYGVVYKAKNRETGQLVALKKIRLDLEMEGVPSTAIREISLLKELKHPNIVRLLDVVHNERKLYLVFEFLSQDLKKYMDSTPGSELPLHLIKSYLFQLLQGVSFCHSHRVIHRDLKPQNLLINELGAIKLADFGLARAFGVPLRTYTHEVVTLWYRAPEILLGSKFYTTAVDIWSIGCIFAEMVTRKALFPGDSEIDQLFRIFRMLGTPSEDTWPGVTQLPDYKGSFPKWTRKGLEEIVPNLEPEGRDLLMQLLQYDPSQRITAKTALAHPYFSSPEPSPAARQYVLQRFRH
Sequence of CDK3/cyclinE(h) (P24864 whole entry partner): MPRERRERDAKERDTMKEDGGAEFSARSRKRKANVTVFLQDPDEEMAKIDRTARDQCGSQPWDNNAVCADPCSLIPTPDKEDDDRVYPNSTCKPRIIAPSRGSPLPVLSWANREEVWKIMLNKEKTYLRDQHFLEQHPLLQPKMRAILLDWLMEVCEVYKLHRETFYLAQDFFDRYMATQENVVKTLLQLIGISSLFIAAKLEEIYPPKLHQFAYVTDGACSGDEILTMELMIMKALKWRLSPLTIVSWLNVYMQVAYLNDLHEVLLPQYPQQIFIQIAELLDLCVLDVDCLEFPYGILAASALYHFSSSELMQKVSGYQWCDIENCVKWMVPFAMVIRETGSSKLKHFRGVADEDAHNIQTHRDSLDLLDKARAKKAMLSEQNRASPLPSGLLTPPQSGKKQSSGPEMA
Sequence of Bmx(h) (P51813 whole entry): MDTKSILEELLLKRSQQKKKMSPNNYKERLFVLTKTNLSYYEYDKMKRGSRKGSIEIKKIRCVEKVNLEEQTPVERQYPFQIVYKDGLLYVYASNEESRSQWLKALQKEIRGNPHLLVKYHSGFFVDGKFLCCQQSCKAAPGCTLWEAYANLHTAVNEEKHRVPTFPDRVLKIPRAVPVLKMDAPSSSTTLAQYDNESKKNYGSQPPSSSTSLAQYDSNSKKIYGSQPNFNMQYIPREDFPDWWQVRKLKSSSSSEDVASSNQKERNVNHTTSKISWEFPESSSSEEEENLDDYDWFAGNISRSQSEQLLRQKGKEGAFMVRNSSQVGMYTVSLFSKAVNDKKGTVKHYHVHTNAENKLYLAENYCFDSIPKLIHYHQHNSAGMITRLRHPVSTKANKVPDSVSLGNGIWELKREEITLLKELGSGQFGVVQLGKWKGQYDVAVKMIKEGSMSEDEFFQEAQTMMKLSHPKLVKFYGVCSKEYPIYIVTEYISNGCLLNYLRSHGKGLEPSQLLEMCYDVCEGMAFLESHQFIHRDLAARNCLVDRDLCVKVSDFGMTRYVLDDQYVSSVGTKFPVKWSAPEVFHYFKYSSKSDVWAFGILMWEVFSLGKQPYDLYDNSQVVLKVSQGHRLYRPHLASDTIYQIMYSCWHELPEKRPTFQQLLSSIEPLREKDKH

## CCn1c(N2CCNCC2)nc2c(Br)c(Br)c(Br)c(Br)c21 [Compound 416, 4,5,6,7-tetrabromo-1-ethyl-2-(piperazin-1-yl)-1H-benzo[d]imidazole]
eEF-2K(h)
  remaining activity at 1 µM: 107%
ALK(h)
  remaining activity at 1 µM: 106%
Flt3(D835Y)(h)
  remaining activity at 1 µM: 1%
cKit(h)
  remaining activity at 1 µM: 121%
PIM-2(h)
  remaining activity at 1 µM: 10%
MST2(h)
  remaining activity at 1 µM: 93%
Lyn(h)
  remaining activity at 1 µM: 65%
PAK3(h)
  remaining activity at 1 µM: 100%
WNK2(h)
  remaining activity at 1 µM: 102%
PrKX(h)
  remaining activity at 1 µM: 74%
ALK4(h)
  remaining activity at 1 µM: 112%
MLCK(h)
  % remaining activity: 88%
MRCKβ(h)
  remaining activity at 1 µM: 113%
PKCδ(h)
  remaining activity at 1 µM: 89%
MKK7β(h)
  remaining activity at 1 µM: 95%
PIM-1(h)
  remaining activity at 1 µM: 1%
DAPK1(h)
  remaining activity at 1 µM: 100%
HIPK1(h)
  remaining activity at 1 µM: 8%
Flt4(h)
  remaining activity at 1 µM: 17%
mTOR/FKBP12(h)
  remaining activity at 1 µM: 103%
MINK(h)
  remaining activity at 1 µM: 87%
cKit(V654A)(h)
  remaining activity at 1 µM: 36%
Ret(V804M)(h)
  remaining activity at 1 µM: 20%
MAPK2(h)
  remaining activity at 1 µM: 81%
IKKβ(h)
  remaining activity at 1 µM: 78%
Src(1-530)(h)
  remaining activity at 1 µM: 65%
PAR-1Bα(h)
  remaining activity at 1 µM: 85%
Tec(h) activated
  remaining activity at 1 µM: 107%
Axl(h)
  remaining activity at 1 µM: 36%
MAPKAP-K2(h)
  remaining activity at 1 µM: 101%
CDK3/cyclinE(h)
  remaining activity at 1 µM: 16%
Bmx(h)
  remaining activity at 1 µM: 94%
Tie2 (h)
  remaining activity at 1 µM: 92%
PAK5(h)
  remaining activity at 1 µM: 93%
EGFR(T790M, L858R)(h)
  remaining activity at 1 µM: 11%
DAPK2(h)
  remaining activity at 1 µM: 92%
EphA8(h)
  remaining activity at 1 µM: 102%
SGK2(h)
  remaining activity at 1 µM: 79%
PhKγ2(h)
  remaining activity at 1 µM: 88%
MAPKAP-K3(h)
  remaining activity at 1 µM: 106%
